Data as given in patent US9260504B2, “N- and C-terminal substituted antagonistic analogs of GH-RH” (University of Miami, priority 2008, dated 2016).

Columns and labels:
Assay type in all cases: in vivo
[1] = tested on: PC-3 human hormone-independent prostate cancer; experiment: PC-3 human prostate cancer xenografts in nude mice, Experiment 4; conditions: for Tumor growth after 28 days (%) / Tumor growth after 46 days (%) / Inhibition (%): 2 μg/day s.c.; for Inhibitory effect on PC-3 tumors compared with reference peptide JMR-132: 2 μg/day vs JMR-132 10 μg/day, after 46 days of treatment
Description: Male nude mice were implanted s.c. with 3 mm^3 pieces of PC-3 human hormone-independent prostate cancer tissue on both flanks. When tumors reached a volume of approximately 50 mm^3, the mice were divided into 12 experimental groups with 8 to 10 animals in each group and received single daily injections for 28 days as follows: 1. Control (vehicle solution); 2. JMR-132 (10 μg/day s.c.); 3. Peptide 11113 (2 μg/day s.c.); 4. Peptide 11119 (2 μg/day s.c.); 5. Peptide 11209 (2 μg/day s.c.); 6. Peptide 11313 (2 μg/day s.c.); 7. Peptide 11408 (2 μg/day s.c.); 8. Peptide 11435 (2 μg/day s.c.); 9. Peptide 11457 (2 μg/day s.c.); 10. Peptide 11459 (2 μg/day s.c.); 11. Peptide 11469 (2 μg/day s.c.); 12. Peptide 11491 (2 μg/day s.c.).
(§1) Tumor volumes were measured once a week. The experiment was ended on day 28 by sacrificing the mice under Isoflurane anesthesia. Resulting tumors were cleaned, weighed, and snap-frozen until further analyses. Statistical analyses of the measurement results were done by two-tailed t-test, p<0.05 being considered significant.
All experimental details of Experiment 4 are the same as for Experiment 3, with the following difference. When tumors reached a volume of approximately 50 mm^3, the mice were divided into 11 experimental groups with 8 to 10 animals in each group and received single daily injections for 46 days as follows: 1. Control (vehicle solution); 2. JMR-132 (10 μg/day s.c.); 3. Peptide 11123 (2 μg/day s.c.); 4. Peptide 11125 (2 μg/day s.c.); 5. Peptide 11213 (2 μg/day s.c.); 6. Peptide 11433 (2 μg/day s.c.); 7. Peptide 11473 (2 μg/day s.c.); 8. Peptide 11485 (2 μg/day s.c.); 9. Peptide 11497 (2 μg/day s.c.); 10. Peptide 11499 (2 μg/day s.c.); 11. Peptide 11521 (2 μg/day s.c.). Tumor volumes were measured once a week. The experiment was ended on day 46 by sacrificing the mice under Isoflurane anesthesia. Resulting tumors were cleaned, weighed, and snap-frozen until further analyses. Statistical analyses of the measurement results were done by two-tailed t-test, p<0.05 being considered significant.

[2] = tested on: Human ovarian cancer SKOV3 cells; experiment: SKOV3 ovarian cancer xenografts in nude mice; conditions: 5 μg/day s.c.
Source text: Human ovarian cancer SKOV3 cells growing exponentially were implanted info five female nude mice by subcutaneous (s.c.) injection of 10^7 cells in both flanks. Tumors That resulted after approximately 4 weeks in donor animals were then aseptically dissected and mechanically minced. Three mm^3 pieces of tumor tissue were transplanted subcutaneously into experimental animals with a trocar needle. When tumors reached an appropriate size (approximately 50 mm^3), mice were randomly divided into […]. The first was the control group, the second group was treated with daily s.c. injections of 5 μg P-11313, the third group was treated with daily s.c. injections of 5 μg P-11604, the fourth group was treated with daily s.c. injections of 5 μg P-11610. Tumor volume (length×width×height×0.5236) was measured every week and mean tumor volumes of each group were compared by Student's t-test. The study lasted 49 days. One week after end of treatment, mice were killed under anesthesia, tumors were snap frozen and stored at −70° C.

[3] = tested on: HT human diffuse mixed B cell lymphoma cell line; experiment: HT human diffuse mixed B cell lymphoma xenografts in nude mice; conditions: 5 μg/day s.c.
Description: The aim of this study was to find out the tumor inhibitor effect of the latest GHRH antagonists (Peptide 11602, Peptide 11604, Peptide 11606, and Peptide 11610) at the dose of 5 μg/day on HT human diffuse mixed B cell lymphoma cell line. Female nude mice were xenografted subcutaneously with approximately 3 mm^3 pieces of HT malignant tumor tissue. When tumors reached the mean volume of approximately 120 mm^3, the animals were randomly assigned into different groups. Tumor volumes and body weight were measured once a week. At the end of the experiment mice were anesthetized and sacrificed. Tumors were carefully excised, weighed and were stored at −80° C. until further investigation. Organs and tumor samples were preserved in 10% formaldehyde.

[4] = tested on: PC-3 human hormone-independent prostate cancer; experiment: PC3 androgen-independent prostate cancer xenografts in nude mice (Example XIV)
Description: Male nude mice were implanted s.c. with 3 mm^3 pieces of PC-3 human hormone-independent prostate cancer tissue on both flanks. When tumors reached a volume of approximately 50 mm^3, the mice were divided into 8 experimental groups with 8 to 10 animals in each group and received single daily injections for 28 days as follows: 1. Control (vehicle solution); 2. P-11513 2 μg/day; 3. P-11602 2 μg/day; 4. P-11602 1 μg/day; 5. P-11604 2 μg/day; 6. P-11606 2 μg/day; 7. P-11610 2 μg/day; 8. P-11610 1 μg/day.
as §1

[5] = tested on: H460 human non-small cell lung cancer cell line; experiment: H460 human non-small cell lung cancer xenografts in nude mice (Example XV); conditions: 5 μg/day s.c.
Source text: The aim of this study was to find out the tumor inhibitor effect of the latest GHRH antagonists (Peptide 11423, Peptide 11602, Peptide 11604, Peptide 11606) on H460 human non-small cell lung cancer cell line. Female nude mice were xenografted subcutaneously with approximately 3 mm^3 pieces of H460 human non-small cell lung cancer malignant tumor tissue. When tumors reached the mean volume of approximately 90 mm^3, the animals was randomly assigned into different groups. Tumor volumes and body weight were measured once a week. At the end of the experiment mice were anesthetized and sacrificed. Tumors were carefully excised, weighed and were stored at −80° C. until further investigation. Organs and tumor samples were preserved in 10% formaldehyde.

## [Nac^0-Tyr^1, D-Arg^2, Cpa^6, Ala^8, Har^9, Tyr(Me)^10, His^11, Orn^12, Abu^15, His^20, Orn^21, Nle^27, D-Arg^28, Har^29-AE2A^30] hGH-RH(1-29)NH2 [Peptide 11433]
[1]
  Tumor growth after 28 days (%): 956%
  Tumor growth after 46 days (%): 1890%
[1]; after 28 days
  Inhibition (%): 30.15%
[1]; after 46 days
  Inhibition (%): 43.23%

## [(Dca-Amc)^0-Tyr^1, D-Arg^2, Cpa^6, Ala^8, Har^9, Tyr(Me)^10, His^11, Orn^12, Orn^15, His^20, Orn^21, Nle^27, D-Arg^28, Har^29-Ada^30]hGH-RH(1-29)NH2 [Peptide 11521]
[1]
  Tumor growth after 28 days (%): 877%
  Tumor growth after 46 days (%): 2427%
[1]; after 28 days
  Inhibition (%): 35.86%
[1]; after 46 days
  Inhibition (%): 27.11%

## [Oct^0-Tyr^1, D-Arg^2, Cpa^6, Ala^8, His^9, Tyr(Et)^10, His^11, Orn^12, Abu^15, His^20, Orn^21, Nle^27, D-Arg^28, Har^29-Ada^30]hGH-RH(1-29)NH2 [Peptide 11213]
[1]
  Tumor growth after 28 days (%): 651%
  Tumor growth after 46 days (%): 1144%
  Inhibitory effect on PC-3 tumors compared with reference peptide JMR-132: had a more potent inhibitory effect than reference peptide JMR-132
[1]; after 28 days
  Inhibition (%): 52.41%
[1]; after 46 days
  Inhibition (%): 65.65%

## PhAc^0-Tyr^1, D-Arg^2, Cpa^6, Ala^8, Har^9, (Phe(F)5)^10, His^11, Orn^12, Abu^15, His^20, Orn^21, Nle^27, D-Arg^28, Har^29-Ada^30]hGH-RH(1-29)NH2 [Peptide 11610]
[2]; day 0 (baseline)
  TU growth (%): 100%
[2]; day 7
  TU growth (%): 137.44%
  TU inhibition (%): 35.89%
[2]; day 14
  TU growth (%): 150.1%
  TU inhibition (%): 46.44%
[2]; day 21
  TU growth (%): 239.14%
  TU inhibition (%): 56.00%
[2]; day 28
  TU growth (%): 204.07%
  TU inhibition (%): 75.76%
[2]; day 35
  TU growth (%): 242.05%
  TU inhibition (%): 72.89%
[2]; day 42
  TU growth (%): 273.83%
  TU inhibition (%): 77.85%
[2]; day 49
  TU growth (%): 383.93%
  TU inhibition (%): 69.82%
[3]; day 1 (baseline)
  TUMOR GROWTH (%): 100%
  Tumor inhibition (%): 0%
  Tumor volume (mm^3): 90.42 mm^3
[3]; day 7
  TUMOR GROWTH (%): 183.36%
  Tumor inhibition (%): 40.01%
  Tumor volume (mm^3): 145.53 mm^3
[3]; day 14
  TUMOR GROWTH (%): 307.98%
  Tumor inhibition (%): 36.21%
  Tumor volume (mm^3): 194.57 mm^3
[3]; day 21
  TUMOR GROWTH (%): 361.18%
  Tumor inhibition (%): 53.78%
  Tumor volume (mm^3): 250.24 mm^3
[3]; day 28
  TUMOR GROWTH (%): 519.79%
  Tumor inhibition (%): 42.02%
  Tumor volume (mm^3): 428.99 mm^3
[4]; 1 μg/day, day 0 (baseline)
  TUMOR GROWTH (%): 100%
[4]; 1 μg/day, day 7
  TUMOR GROWTH (%): 195.49%
  Tumor inhibition (%): 40.99%
[4]; 1 μg/day, day 14
  TUMOR GROWTH (%): 302.30%
  Tumor inhibition (%): 48.84%
[4]; 1 μg/day, day 21
  TUMOR GROWTH (%): 549.94%
  Tumor inhibition (%): 53.79%
[4]; 1 μg/day, day 28
  TUMOR GROWTH (%): 740.17%
  Tumor inhibition (%): 60.15%
[4]; 2 μg/day, day 0 (baseline)
  TUMOR GROWTH (%): 100%
[4]; 2 μg/day, day 7
  TUMOR GROWTH (%): 132.24%
  Tumor inhibition (%): 60.08%
[4]; 2 μg/day, day 14
  TUMOR GROWTH (%): 289.25%
  Tumor inhibition (%): 51.05%
[4]; 2 μg/day, day 21
  TUMOR GROWTH (%): 466.31%
  Tumor inhibition (%): 60.82%
[4]; 2 μg/day, day 28
  TUMOR GROWTH (%): 631.89%
  Tumor inhibition (%): 65.98%

## [PhAc^0-Tyr^1, D-Arg^2, (Phe(F)5)^6, Ala^8, Har^9, Tyr(Me)^10, His^11, Orn^12, Abu^15, His^20, Orn^21, Nle^27, D-Arg^28, Har^29-Ada^30]hGH-RH(1-29)NH2 [Peptide 11499]
[1]
  Tumor growth after 28 days (%): 782%
  Tumor growth after 46 days (%): 2178%
[1]; after 28 days
  Inhibition (%): 42.86%
[1]; after 46 days
  Inhibition (%): 34.59%

## [PhAc^0-Tyr^1, D-Arg^2, Cpa^6, Dip^8, Har^9, Tyr(Me)^10, His^11, Orn^12, Abu^15, His^20, Orn^21, Nle^27, D-Arg^28, Har^29-AE2A^30]hGH-RH(1-29)NH2 [Peptide 11423]
[5]; day 1 (baseline)
  TUMOR GROWTH (%): 100.00%
[5]; day 7
  TUMOR GROWTH (%): 412.37%
  Tumor inhibition (%): 22.17%
[5]; day 14
  TUMOR GROWTH (%): 761.10%
  Tumor inhibition (%): 44.95%
[5]; day 21
  TUMOR GROWTH (%): 1130.90%
  Tumor inhibition (%): 54.20%
[5]; day 28
  TUMOR GROWTH (%): 2687.38%
  Tumor inhibition (%): 34.45%

## [(Ac-Amc)^0-Tyr^1, D-Arg^2, Cpa^6, Ala^8, Har^9, Tyr(Me)^10, His^11, Orn^12, Abu^15, His^20, Orn^21, Nle^27, D-Arg^28, Har^29-Ada^30]hGH-RH(1-29)NH2 [Peptide 11497]
[1]
  Tumor growth after 28 days (%): 872%
  Tumor growth after 46 days (%): 1658%
  Inhibitory effect on PC-3 tumors compared with reference peptide JMR-132: had a more potent inhibitory effect than reference peptide JMR-132
[1]; after 28 days
  Inhibition (%): 36.25%
[1]; after 46 days
  Inhibition (%): 50.22%

## [Dca^0-Tyr^1, D-Arg^2, Cpa^6, Ala^8, Har^9, Tyr(Me)^10, His^11, Orn^12, Abu^15, Har^20, Orn^21, Nle^27, D-Arg^28, Har^29]hGH-RH(1-29)NH2 [Peptide 11513]
[4]; 2 μg/day, day 0 (baseline)
  TUMOR GROWTH (%): 100%
[4]; 2 μg/day, day 7
  TUMOR GROWTH (%): 212.49%
  Tumor inhibition (%): 35.86%
[4]; 2 μg/day, day 14
  TUMOR GROWTH (%): 420.81%
  Tumor inhibition (%): 28.79%
[4]; 2 μg/day, day 21
  TUMOR GROWTH (%): 823.51%
  Tumor inhibition (%): 30.80%
[4]; 2 μg/day, day 28
  TUMOR GROWTH (%): 1420.09%
  Tumor inhibition (%): 23.54%
